This passage reports TGI results from PubChem BioAssay (NCI).

SMILES strings stand for the structures.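 Compound exposure: 48 hours, 5 concentrations, 96-well plates. The concentration for full growth arrest is given as TGI.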

Some test systems named below: HT29 colon; SNB-75 CNS; OVCAR-3 ovarian; NCI-H522 lung; SK-MEL-28 melanoma; A498 renal; U251 CNS; MALME-3M melanoma; HOP-62 NSCLC; SF-295 CNS; SNB-19 CNS; HCT-116 colon; NCI-H23 lung; BT-549 breast; T-47D breast; CAKI-1 renal; NCI-H460 lung.
Common to all, as to experiment: DTP human tumour cell line panel, 48 h

The TGI is the concentration giving total growth inhibition. In the case of `CN(C)CCn1c(=O)c2ccc(NCCNCCO)c3c(=O)c4ccccc4n(c1=O)c23`, the TGI in the experiment on HT29 colon was 4.6 µM; in the experiment with SNB-75 CNS, 0.404 µM; with OVCAR-3 ovarian, 5.66 µM; with NCI-H522 lung, 0.34 µM; in the experiment with SK-MEL-28 melanoma it was more than 19.7 µM; in the experiment on A498 renal, 0.458 µM. The concentration for total growth inhibition (TGI) with U251 CNS is 3.07 µM; with MALME-3M melanoma it was 3.41 µM; with HOP-62 NSCLC, 0.851 µM; with SF-295 CNS it was 14.6 µM; in the experiment on SNB-19 CNS it was 3.98 µM; in the experiment with HCT-116 colon, 3.4 µM. Besides, the TGI in the experiment on NCI-H23 lung is 0.849 µM; in the experiment on BT-549 breast, 4.81 µM; with T-47D breast it was 7.61 µM; in the experiment with CAKI-1 renal, 0.186 µM.

`[O-][n+]1nc(N2CCOCC2)nc2ccccc21`: the TGI with HT29 colon, in the experiment with SNB-75 CNS, in the experiment with NCI-H522 lung, with SK-MEL-28 melanoma, in the experiment with A498 renal and in the experiment with U251 CNS was more than 100 µM throughout. Besides, the TGI in the experiment with MALME-3M melanoma, in the experiment with HOP-62 NSCLC, in the experiment with SF-295 CNS, with SNB-19 CNS, in the experiment on HCT-116 colon and in the experiment on NCI-H23 lung was more than 100 µM throughout. The TGI in the experiment with BT-549 breast, in the experiment on T-47D breast and in the experiment with CAKI-1 renal was more than 100 µM throughout.

Take `Cc1nc2ccccc2c(=O)n1NC(=O)c1ccccn1`: the TGI in the experiment on HT29 colon, with SNB-75 CNS, in the experiment with OVCAR-3 ovarian, in the experiment on NCI-H522 lung, in the experiment with SK-MEL-28 melanoma and with A498 renal was more than 100 µM each time. The TGI with NCI-H460 lung, in the experiment with U251 CNS, in the experiment with MALME-3M melanoma, with HOP-62 NSCLC, in the experiment on SF-295 CNS and with SNB-19 CNS was more than 100 µM throughout. The TGI in the experiment on HCT-116 colon, in the experiment with NCI-H23 lung, in the experiment with BT-549 breast and in the experiment on T-47D breast was more than 100 µM throughout.

Consider `O=C1c2c(Br)sc(Br)c2C(NC(=O)C(F)(F)F)C1O` (stereo not given), for which the TGI is 53.6 µM in the experiment with HT29 colon; more than 100 µM in the experiment with SNB-75 CNS; 43.7 µM with OVCAR-3 ovarian; 27.3 µM with NCI-H522 lung; 43.7 µM with SK-MEL-28 melanoma; more than 100 µM in the experiment with A498 renal. Further, the TGI amounted to 36 µM with NCI-H460 lung; 37.4 µM in the experiment with U251 CNS; 43.7 µM with MALME-3M melanoma; 35.7 µM in the experiment with SF-295 CNS; 56.4 µM with SNB-19 CNS; 32.6 µM in the experiment with HCT-116 colon. Also, the TGI is 46.3 µM with NCI-H23 lung, 34.9 µM with BT-549 breast, 55.9 µM in the experiment with T-47D breast and 31.4 µM in the experiment on CAKI-1 renal.

Regarding `CC12Nc3c(Cl)cc(Cl)cc3N1C(=O)c1ccccc12` (stereo not given), the TGI was more than 100 µM with HT29 colon; more than 100 µM in the experiment on SNB-75 CNS; more than 100 µM with OVCAR-3 ovarian; more than 100 µM with NCI-H522 lung; more than 100 µM in the experiment on SK-MEL-28 melanoma; 99.9 µM in the experiment with A498 renal. Further, the TGI in the experiment on NCI-H460 lung, with U251 CNS, in the experiment on MALME-3M melanoma, in the experiment with HOP-62 NSCLC, in the experiment with SF-295 CNS and in the experiment with HCT-116 colon was more than 100 µM throughout. Besides, the TGI with NCI-H23 lung, in the experiment with BT-549 breast, with T-47D breast and in the experiment on CAKI-1 renal was more than 100 µM in each case.

As to `Cc1c2c(cc3c1C(=O)C(=O)C([C@@H](C)CO)=C3O)C(C)(C)CCC2`, the TGI with HT29 colon was 30.6 µM; in the experiment with SNB-75 CNS it was 86.5 µM; with OVCAR-3 ovarian, more than 100 µM; in the experiment on NCI-H522 lung it was 62.8 µM; in the experiment with SK-MEL-28 melanoma it was more than 100 µM; with A498 renal, 98.9 µM. The TGI with U251 CNS was 53.8 µM; with MALME-3M melanoma it was 57.1 µM; in the experiment with HOP-62 NSCLC, more than 100 µM; in the experiment on SF-295 CNS it was more than 100 µM; in the experiment with SNB-19 CNS, 23.3 µM; in the experiment with HCT-116 colon, 93.1 µM. Further, the total growth inhibition concentration (TGI) in the experiment on NCI-H23 lung was 45.2 µM; in the experiment on BT-549 breast, more than 100 µM; in the experiment on T-47D breast, more than 100 µM; in the experiment on CAKI-1 renal it was more than 100 µM.

Consider `COc1cccc(Nc2nc(C)c([N+](=O)[O-])c(Nc3cccc(OC)c3)n2)c1`, for which the TGI in the experiment with HT29 colon is more than 100 µM; in the experiment on SNB-75 CNS it was 4.73 µM; with OVCAR-3 ovarian, 57.2 µM; with NCI-H522 lung, more than 100 µM; in the experiment on SK-MEL-28 melanoma, more than 100 µM; with A498 renal, 50.4 µM. The TGI was 19.8 µM with NCI-H460 lung; more than 100 µM in the experiment with U251 CNS; more than 100 µM in the experiment on MALME-3M melanoma; 46.2 µM in the experiment with HOP-62 NSCLC; 47.9 µM in the experiment with SF-295 CNS; more than 100 µM in the experiment on SNB-19 CNS. For the same compound, the TGI is more than 100 µM in the experiment on HCT-116 colon, more than 100 µM in the experiment with NCI-H23 lung, 8.14 µM in the experiment on BT-549 breast and 6.9 µM with T-47D breast.

For the compound `Cc1nc(N)c(N2CCN(S(N)(=O)=O)CC2)c(=O)[nH]1`, the TGI in the experiment on HT29 colon, in the experiment on SNB-75 CNS, in the experiment with OVCAR-3 ovarian, in the experiment with NCI-H522 lung, with SK-MEL-28 melanoma and in the experiment with A498 renal was more than 100 µM throughout. Moreover, the TGI in the experiment with NCI-H460 lung, with U251 CNS, with MALME-3M melanoma, in the experiment on HOP-62 NSCLC, with SF-295 CNS and in the experiment with SNB-19 CNS was more than 100 µM each time. Further, the TGI in the experiment on HCT-116 colon, in the experiment on NCI-H23 lung, with BT-549 breast and with T-47D breast was more than 100 µM throughout.

With `Cc1c(N=Nc2ccccc2)c(-c2ccccc2)n(C2OC(CO)C(O)C(O)C2O)c(=S)c1C#N` (stereo not given), the TGI in the experiment on HT29 colon was 29.7 µM; with SNB-75 CNS it was more than 100 µM; in the experiment on OVCAR-3 ovarian, 18 µM; in the experiment with NCI-H522 lung, 14.1 µM; in the experiment on SK-MEL-28 melanoma, 19.6 µM; with A498 renal, 32.5 µM. The TGI was determined as 97.6 µM with NCI-H460 lung; 17.7 µM in the experiment with U251 CNS; 30.6 µM in the experiment with MALME-3M melanoma; 23.2 µM with HOP-62 NSCLC; 55.8 µM in the experiment with SF-295 CNS; 27.8 µM in the experiment with SNB-19 CNS. The TGI is 16.2 µM in the experiment with NCI-H23 lung, more than 100 µM in the experiment on BT-549 breast and 4.74 µM in the experiment on T-47D breast.

`O=C(CC(O)(C(F)(F)F)C(F)(F)F)C(c1ccccc1)C(O)(C(F)(F)F)C(F)(F)F` (stereo not given): the TGI in the experiment on HT29 colon was more than 100 µM; with SNB-75 CNS, 27.2 µM; in the experiment on OVCAR-3 ovarian it was 83.4 µM; with NCI-H522 lung, more than 100 µM; with SK-MEL-28 melanoma, more than 100 µM; in the experiment with A498 renal it was more than 100 µM. In addition, the TGI in the experiment with NCI-H460 lung, in the experiment with U251 CNS, in the experiment on MALME-3M melanoma, with SF-295 CNS, in the experiment on SNB-19 CNS and in the experiment on HCT-116 colon was more than 100 µM throughout. Further, the TGI in the experiment with NCI-H23 lung, in the experiment with BT-549 breast, with T-47D breast and in the experiment on CAKI-1 renal was more than 100 µM each time.

As for `NC(CSS(=O)(=O)O)=NC1CC2CCC1C2` (stereo not given), the total growth inhibition concentration (TGI) in the experiment on SNB-75 CNS, in the experiment on OVCAR-3 ovarian, in the experiment on NCI-H522 lung, in the experiment with SK-MEL-28 melanoma, in the experiment on A498 renal and with NCI-H460 lung was more than 100 µM in each case. The TGI with U251 CNS, in the experiment with MALME-3M melanoma, in the experiment on HOP-62 NSCLC, with SF-295 CNS, in the experiment with SNB-19 CNS and in the experiment on HCT-116 colon was more than 100 µM each time. Also, the TGI in the experiment on NCI-H23 lung, in the experiment with BT-549 breast, in the experiment on T-47D breast and in the experiment on CAKI-1 renal was more than 100 µM in each case.

With `C[C@]12CC[C@H]3[C@@H](CCC4=CC(=O)CC[C@@H]43)[C@@H]1CC[C@]2(O)C(N)=O`, the TGI in the experiment with HT29 colon, in the experiment on SNB-75 CNS, in the experiment on OVCAR-3 ovarian, in the experiment on NCI-H522 lung, in the experiment on SK-MEL-28 melanoma and in the experiment with A498 renal was more than 100 µM in each case. Also, the TGI in the experiment on NCI-H460 lung, in the experiment with U251 CNS, in the experiment on MALME-3M melanoma, in the experiment with HOP-62 NSCLC, in the experiment on SF-295 CNS and in the experiment with SNB-19 CNS was more than 100 µM throughout. Also, the TGI with HCT-116 colon, in the experiment on NCI-H23 lung, in the experiment with BT-549 breast and with T-47D breast was more than 100 µM in each case.

For `CCCCNC(=S)Nc1nc(C(=O)NNC(=S)NCC)cs1`, the TGI in the experiment on HT29 colon, in the experiment with SNB-75 CNS, in the experiment on OVCAR-3 ovarian, in the experiment with NCI-H522 lung, in the experiment with A498 renal and with U251 CNS was more than 100 µM throughout. Further, the TGI in the experiment on MALME-3M melanoma, in the experiment on HOP-62 NSCLC, in the experiment on SF-295 CNS, with HCT-116 colon, in the experiment on NCI-H23 lung and with BT-549 breast was more than 100 µM each time. For the same compound, the values for the TGI with T-47D breast and in the experiment on CAKI-1 renal were 71.3 µM and more than 100 µM, respectively.

For the compound `O=[N+]([O-])/C(C(Cl)=C(Cl)Cl)=C1\Nc2ccc([N+](=O)[O-])cc2N1`, the TGI was more than 100 µM in the experiment on SNB-75 CNS; more than 100 µM in the experiment on OVCAR-3 ovarian; 63 µM in the experiment on NCI-H522 lung; more than 100 µM in the experiment with SK-MEL-28 melanoma; more than 100 µM in the experiment on A498 renal; more than 100 µM in the experiment with NCI-H460 lung. Moreover, the concentration for total growth inhibition (TGI) with U251 CNS, in the experiment with MALME-3M melanoma, in the experiment with HOP-62 NSCLC, with SF-295 CNS, with SNB-19 CNS and in the experiment on HCT-116 colon was more than 100 µM each time. Besides, the TGI in the experiment on NCI-H23 lung, with BT-549 breast, in the experiment with T-47D breast and with CAKI-1 renal was more than 100 µM throughout.
